From patent publication US8404729B2, “Heterocyclic tetracyclic tetrahydrofuran derivatives” (Janssen Pharmaceutica, NV, priority 2005, dated 2013) come the findings set out here.

The structures appear in SMILES notation.

Assay [1] addresses T1, 5-HT2C receptors (Sus scrofa, UniProt K7GSR7).
T1 construct: the tissue used is the choroid plexus of the pig; from tissue; host or cells: pig choroid plexus
T1 sequence (K7GSR7 1-457): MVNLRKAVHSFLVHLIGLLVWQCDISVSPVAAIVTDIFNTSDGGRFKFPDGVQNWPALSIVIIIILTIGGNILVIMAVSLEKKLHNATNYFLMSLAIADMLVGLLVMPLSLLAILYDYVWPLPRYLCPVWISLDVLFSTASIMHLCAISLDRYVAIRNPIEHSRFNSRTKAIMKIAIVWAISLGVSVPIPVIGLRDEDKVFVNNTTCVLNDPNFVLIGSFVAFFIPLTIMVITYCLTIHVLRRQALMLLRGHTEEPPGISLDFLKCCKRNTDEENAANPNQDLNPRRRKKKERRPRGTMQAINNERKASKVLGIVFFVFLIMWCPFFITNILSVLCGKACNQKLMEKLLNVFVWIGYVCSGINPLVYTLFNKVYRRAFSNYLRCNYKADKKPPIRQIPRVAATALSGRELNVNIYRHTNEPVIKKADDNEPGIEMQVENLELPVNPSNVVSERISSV
Nature of the assay: In vitro binding affinity for 5-HT2C receptor (3H-mesulergine radioligand binding). The note with it: choroid plexus of the pig, read-out: 5-HT2C (pIC50) (converted). Here is the method: (§1) The interaction of the compounds of Formula (I) with 5-HT2A and 5-HT2C receptors was assessed in in vitro radioligand binding experiments. In general, a low concentration of a radioligand with a high binding affinity for the receptor is incubated with a sample of a tissue preparation enriched in a particular receptor (1 to 5 mg tissue) in a buffered medium (0.2 to 5 ml). During the incubation, the radioligands bind to the receptor. When equilibrium of binding is reached, the receptor bound radioactivity is separated from the non-bound radioactivity, and the receptor bound activity is counted. The interaction of the test compounds with the receptors is assessed in competition binding experiments. Various concentrations of the test compound are added to the incubation mixture containing the tissue preparation and the radioligand. Binding of the radioligand will be inhibited by the test compound in proportion to its binding affinity and its concentration. The radioligand used for 5-HT2A binding affinity is ^3H-ketanserin and the tissue used is the frontal cortex of the rat. The radioligand used for 5-HT2c binding affinity is ^3H-mesulergine and the tissue used is the choroid plexus of the pig.

Assay [2] deals with T2, human Dopamine D2L receptor (Homo sapiens, UniProt P14416).
T2 construct: expressed in transfected cells; host or cells: CHO cells
T2 sequence (P14416 whole entry): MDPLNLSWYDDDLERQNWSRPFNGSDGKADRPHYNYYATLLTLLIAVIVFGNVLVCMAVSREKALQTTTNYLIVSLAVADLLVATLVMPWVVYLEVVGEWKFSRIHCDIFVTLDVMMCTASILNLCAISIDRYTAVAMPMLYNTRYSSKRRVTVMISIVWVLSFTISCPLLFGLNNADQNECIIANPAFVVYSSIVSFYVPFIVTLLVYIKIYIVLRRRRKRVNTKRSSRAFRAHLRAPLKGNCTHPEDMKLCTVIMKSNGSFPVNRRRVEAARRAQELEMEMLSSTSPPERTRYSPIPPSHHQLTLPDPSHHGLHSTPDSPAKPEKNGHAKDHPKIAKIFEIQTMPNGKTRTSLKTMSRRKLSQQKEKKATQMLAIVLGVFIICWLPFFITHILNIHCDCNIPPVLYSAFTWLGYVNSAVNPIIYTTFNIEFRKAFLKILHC
The assay is described as follows: In vitro binding affinity for human D2L receptor ([3H]Spiperone). The note with it: membranes of human D2L receptor-transfected CHO cells, read-out: D2 (pIC50) (converted). The protocol:
Frozen membranes of human Dopamine D2L receptor-transfected CHO cells were thawed, briefly homogenised using an Ultra-Turrax T25 homogeniser and diluted in Tris-HCl assay buffer containing NaCl, CaCl2, MgCl2, KCl (50, 120, 2, 1, and 5 mM respectively, adjusted to pH 7.7 with HCl) to an appropriate protein concentration optimised for specific and non-specific binding. Radioligand [^3H]Spiperone (NEN, specific activity ˜70 Ci/mmol) was diluted in assay buffer at a concentration of 2 nmol/L. Prepared radioligand (50 μl), along with 50 μl of either the 10% DMSO control, Butaclamol (10^−6 mol/l final concentration), or compound of interest, was then incubated (30 min, 37° C.) with 400 μl of the prepared membrane solution. Membrane-bound activity was filtered through a Packard Filtermate harvester onto GF/B Unifilterplates and washed with ice-cold Tris-HCl buffer (50 mM; pH 7.7; 6×0.5 ml). Filters were allowed to dry before adding scintillation fluid and counting in a Topcount scintillation counter. Percentage specific bound and competition binding curves were calculated using S-Plus software (Insightful).

Assay [3] addresses T3, NET (Rattus norvegicus, UniProt Q63380).
T3 construct: Cortex from rat brain was collected and homogenised; from tissue; host or cells: rat brain cortex
Nature of the assay: In vitro determination of NET reuptake inhibition ([3H]Nixosetine binding). The note with it: rat brain cortex membranes, read-out: NET-inhibition (pIC50) (converted). Here is the method: Cortex from rat brain was collected and homogenised using an Ultra-Turrax T25 and a Dual homogeniser in ice-cold homogenising buffer containing Tris, NaCl and KCl (50 mM, 120 mM and 5 mM, respectively, pH 7.4) prior to dilution to an appropriate protein concentration optimised for specific and non-specific binding. […] Membrane-bound activity was detected by filtration through a Packard Filtermate harvester onto GF/B Unifilterplates, washed with ice-cold Tris-HCl buffer, containing NaCl and KCl (50 mM, 120 mM and 4 mM; pH 7.4; 6×0.5 ml). Filters were allowed to dry for 24 h before adding scintillation fluid. Scintillation fluid was allowed to saturate filters for 24 h before counting in a Topcount scintillation counter. Percentage specific bound and competition binding curves were calculated using S-Plus software (Insightful).

The target of assay [4] is T4, 5-HT2A receptors (Rattus norvegicus, UniProt P14842).
T4 construct: the tissue used is the frontal cortex of the rat; from tissue; host or cells: rat frontal cortex
T4 sequence (P14842 whole entry): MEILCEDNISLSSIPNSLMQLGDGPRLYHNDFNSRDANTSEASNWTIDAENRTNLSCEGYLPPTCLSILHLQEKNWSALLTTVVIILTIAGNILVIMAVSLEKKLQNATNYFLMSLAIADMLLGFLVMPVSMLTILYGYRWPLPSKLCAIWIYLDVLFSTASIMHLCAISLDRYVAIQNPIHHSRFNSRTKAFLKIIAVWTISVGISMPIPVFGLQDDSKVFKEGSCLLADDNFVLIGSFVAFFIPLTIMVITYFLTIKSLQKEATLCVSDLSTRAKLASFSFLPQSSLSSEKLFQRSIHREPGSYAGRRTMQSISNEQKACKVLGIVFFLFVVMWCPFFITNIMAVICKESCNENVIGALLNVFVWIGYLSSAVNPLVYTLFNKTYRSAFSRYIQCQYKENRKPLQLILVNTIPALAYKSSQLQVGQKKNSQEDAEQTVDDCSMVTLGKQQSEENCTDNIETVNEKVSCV
Nature of the assay: In vitro binding affinity for 5-HT2A receptor (3H-ketanserin radioligand binding). The note with it: frontal cortex of the rat, read-out: 5-HT2A (pIC50) (converted). Here is the method:
as §1, with “In general, a low concentration of a radioligand with a high binding affinity for the receptor is incubated with a sample of a tissue preparation enriched in a particular receptor (1 to 5 mg tissue) in a buffered medium (0.2 to 5 ml).” left out

T3 sequence (Q63380 1-617): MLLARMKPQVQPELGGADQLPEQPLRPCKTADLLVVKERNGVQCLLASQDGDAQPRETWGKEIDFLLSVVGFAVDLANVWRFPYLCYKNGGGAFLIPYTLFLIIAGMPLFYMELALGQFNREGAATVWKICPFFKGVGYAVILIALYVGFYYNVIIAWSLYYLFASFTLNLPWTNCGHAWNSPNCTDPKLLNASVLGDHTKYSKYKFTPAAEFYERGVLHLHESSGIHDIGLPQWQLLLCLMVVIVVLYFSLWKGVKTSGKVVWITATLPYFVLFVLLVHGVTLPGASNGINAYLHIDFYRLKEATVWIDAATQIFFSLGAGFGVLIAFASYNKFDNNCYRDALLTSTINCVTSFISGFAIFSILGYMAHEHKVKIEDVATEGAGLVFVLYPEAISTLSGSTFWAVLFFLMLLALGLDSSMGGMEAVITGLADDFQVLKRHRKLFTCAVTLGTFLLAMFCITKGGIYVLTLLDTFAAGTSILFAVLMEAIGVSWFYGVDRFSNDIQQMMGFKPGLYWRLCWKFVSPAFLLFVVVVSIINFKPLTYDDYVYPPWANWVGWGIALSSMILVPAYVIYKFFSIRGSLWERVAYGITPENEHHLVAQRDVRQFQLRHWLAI

On to `OCCC1CCN(CC2CC3c4ccccc4Sc4sccc4C3O2)CC1` (stereo not shown) [Compound 11], for which the IC50 was 39.8 nM in assay [1], 6.31 nM in assay [2], 7.94 µM in assay [3] and 3.16 nM in assay [4].
